Assay results from patent publication US20230404969A1, “COMPOSITIONS AND METHOD FOR EFFECTIVE MANAGEMENT OF PERITONITIS” (priority 2022, published 2023).

Assays:
[1] = tested on: IL-1β; test: Intracellular IL-1β estimation in LPS activated murine neutrophils (flow cytometry); assay type: cell-based; conditions: 5 μg/ml, LPS 1 μg/ml, 3 h, ↑ upregulation
Method: Flowcytometric studies were carried out to determine the anti-inflammatory effect of active constituents of Withania somnifera extract on TNF-α and IL-1β cytokine expression in LPS activated murine neutrophils.
TNF-α and Interleukin 1 beta (IL-1β) cytokines play a major role in the pathogenesis of septic shock induced by LPS (Lipopolysaccharide) endotoxin injection. LPS is an important triggering factor for in vivo systemic inflammatory response. LPS activates neutrophils via engagement of TLR4 (Toll-like receptor 4), resulting in the induction of a characteristic proinflammatory phenotype and prolongation of cell lifespan. In brief, neutrophils extraction was performed by taking murine blood and centrifuging it at 250 g for 20 min. Middle layer was taken and layered with histopaque and incubated for 10 min. The samples were centrifuged at 700 g, the upper layer was taken and Facs Lysing solution added for the lysis of any traces of RBC. The samples were washed with PBS (200 g) for 10 min. Neutrophils were stimulated with. LPS (1 μg/ml) and incubated with test samples for 3 h, in CO2 incubator. […] A fluorescence trigger was set on the […] parameter of the gated neutrophil populations (10,000 events). Fluorescence compensation, data analysis, and data presentation was performed using Cell Quest Pro software (Beckton—Dickinson Biosciences, CA, USA). […]

[2] = tested on: Myeloperoxidase (MPO); test: Myeloperoxidase in peritoneal exudate (ELISA), chronic zymosan peritonitis; assay type: in vivo, mouse; conditions: 2 mg/kg, day 36
Method: (§1) Peritoneal inflammation was induced by Zymosan A (Sigma Chemical) (Masashi et al. Zymosan, but Not Lipopolysaccharide, Triggers Severe and Progressive Peritoneal Injury Accompanied by complement Activation in a Rat Peritonitis Model) was prepared freshly in sterile, 0.9% w/v saline, and 0.5 ml was injected i.p. from day 0 to Day 5. The lymphocyte population in the peripheral blood was determined with a flow cytometer. Cells were phenotyped by flow cytometry with the following primary antibodies: CD4 (FITC) and CD8 (PE). Cells were gated broadly on all live lymphocyte cells, with only debris and multiple cell clusters being excluded. Analysis of mean fluorescence intensity was done and percentage cell population was evaluated. The test drugs were administered for 30 days after the induction of peritonitis. On 36th day the peritoneal cavity was lavaged with 1.5 ml saline, and after a 30-s gentle manual massage, 0.5 ml exudate was retrieved, centrifuged at 3000 g for 3 min, and frozen at 220° C. prior to cytokine and chemotactic-factor assessment.
Circulating toxins can activate neutrophils or stimulate monocytes to release mediators contributing to the development of endotoxic shock. […] The protein concentrations were carried out by means of colorimetric measurement at 450 nm on an ELISA plate reader by interpolation from a standard curve. […]

[3] = tested on: Lactobacillus acidophilus (Gram positive); test: Bacterial translocation from the gut into organs: L. acidophilus; assay type: in vivo; conditions: Withanone 2 mg/kg; positive/6 mice
Method: as §1
Intestine serves as a barrier in preventing gut bacteria and/or endotoxin from spreading to organs and tissues. It is also known that bacterial translocation occurs in critically ill or immunocompromised patients, and the physical disruption of mucosal barrier in vivo rodent models seem to be a key factor Tor translocation (Deitch et al. Effect of hemorrhagic shock on bacterial translocation, intestinal morphology, and intestinal permeability in conventional and antibiotic-decontaminated rats; Critical Care Medicine; 1990 18(5)). Bacterial translocation from the gut into the peritoneal cavity and organs was analyzed. The mesenteric lymph nodes, liver, and spleen of mice, study group of 30, were removed using sterile instruments. The organs were then homogenized in 1 ml of sterile cooked meat broth and 50 μl of organ homogenate was spread on blood agar plates to detect aerobic bacteria and Eosin Methylene blue agar plates to detect specially for E. coli. These plates were then incubated at 37° C. for 2 days. […]

[4] = tested on: IFN-γ; test: Cytometric Bead Array of peritoneal fluid, chronic zymosan peritonitis: IFN-γ; assay type: in vivo, mouse; conditions: 2 mg/kg, vs Zymosan control
Method: as §1, with “The test drugs were administered for 30 days after the induction of peritonitis. On 36th day the peritoneal cavity was lavaged with 1.5 ml saline, and after a 30-s gentle manual massage, 0.5 ml exudate was retrieved, centrifuged at 3000 g for 3 min, and frozen at 220° C. prior to cytokine and chemotactic-factor assessment.” left out
(§2) The Cytometric Bead Array (Mouse Inflammation kit) was used to study cytokines in peritoneal fluid. […] Briefly, a mixture of 6 capture bead populations (50 μl) with distinct fluorescence intensities (detected in FL3) coated with antibodies specific for the above cytokines was mixed with each sample/standard (50 μl). […] Following acquisition of data by two colour cytometric analysis, the sample results were analysed using CBA software (BD Biosciences). […] Individual cytokine concentration ratios were indicated by their fluorescent intensities and was determined by interpolation from the corresponding standard curve.

[5] = tested on: TNF-α; test: Cytometric Bead Array of peritoneal fluid, chronic zymosan peritonitis: TNF-α; assay type: in vivo, mouse; conditions: 2 mg/kg, vs Zymosan control
Method: as §1, with “The test drugs were administered for 30 days after the induction of peritonitis. On 36th day the peritoneal cavity was lavaged with 1.5 ml saline, and after a 30-s gentle manual massage, 0.5 ml exudate was retrieved, centrifuged at 3000 g for 3 min, and frozen at 220° C. prior to cytokine and chemotactic-factor assessment.” left out
as §2

SMILES: CC1=C(C)C(=O)O[C@@H]([C@@H](C)[C@@]2(O)CC[C@H]3[C@@H]4[C@@H]5O[C@@H]5[C@@]5(O)CC=CC(=O)[C@]5(C)[C@H]4CC[C@@]32C)C1 [Withanone]
- Percentage IL-1β inhibition compared to LPS control [1]: 32%
- Decrease of expression levels of MPO compared to the Zymosan control [2]: at least 50%
- Bacterial translocation, Liver, L. acidophilus [3]: 1/6
- Bacterial translocation, Mesenteric Lymph Nodes, L. acidophilus [3]: 1/6
- Bacterial translocation, Spleen, L. acidophilus [3]: 1/6
- Inhibition of IFN-γ [4]: 44%
- Inhibition of TNF-α [5]: 58%
